Source: patent US7189746B2, “Methods for promoting wound healing” (GliaMed, Inc., priority 2002, dated 2007)
“Also recorded” adds a separate entry of the source.

Key:
[1] = biological target: T1, recombinant FKBP52 (Homo sapiens, UniProt Q02790); experiment: Binding affinity for recombinant FKBP52 by solution-phase tryptophan fluorescence (QTFS); conditions: read-out: disassociation constant (kd), binding affinity for recombinant FKBP52
T1 sequence (Q02790 1-459): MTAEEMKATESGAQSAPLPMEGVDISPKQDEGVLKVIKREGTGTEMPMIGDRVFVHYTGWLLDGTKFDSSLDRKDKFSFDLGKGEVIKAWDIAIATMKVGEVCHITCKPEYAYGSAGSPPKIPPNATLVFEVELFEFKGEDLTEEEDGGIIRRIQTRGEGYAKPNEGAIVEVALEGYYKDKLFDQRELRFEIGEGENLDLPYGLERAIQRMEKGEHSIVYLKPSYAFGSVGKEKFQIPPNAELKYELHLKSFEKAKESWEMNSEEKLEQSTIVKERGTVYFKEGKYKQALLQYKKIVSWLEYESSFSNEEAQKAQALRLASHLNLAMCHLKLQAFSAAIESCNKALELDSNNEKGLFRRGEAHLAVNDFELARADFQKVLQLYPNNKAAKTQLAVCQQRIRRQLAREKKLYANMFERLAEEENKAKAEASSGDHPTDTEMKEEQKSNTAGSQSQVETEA
Excerpt: Accordingly, in one embodiment of the present invention, the immunophilin ligand is FK506 or an FK506 analogue or derivative. As used herein, an “FK506 derivative” is a chemical substance derived from FK506, either directly or by modification, truncation, or partial substitution. FK506 and its analogues and derivatives may be produced synthetically. The FK506 derivative for use in the present invention may be nonimmunosuppressive. In a preferred embodiment of the present invention, the nonimmunosuppressive FK506 derivative is GM-284. This novel compound is a small molecule that effects transcriptional change in Schwann cells, and promotes wound healing and regeneration of epithelial tissue and nervous tissue, as described below. […] The structure of GM-284 is depicted in FIG. 9.

[2] = system: surgical wounds; experiment: Healing of surgical wounds under daily gavage (systemic treatment); type: in vivo, mice
Excerpt: During these studies, the inventor serendipitously observed that the surgical wounds of animals treated systemically with GM-284 appeared dramatically different from those of either vehicle- or FK506-treated mice. […] Given the biochemical properties of GM-284, and the clinical uses of FK506 as a topical medication, the inventor investigated the ability of GM-284 to act as a healing accelerant when applied topically to full-thickness skin biopsies in mice.
These studies required surgical exposure of the right lower quadrant of all study animals. Following exposure of the sciatic nerve from the sciatic notch to the knee, and manipulation of the nerve, the muscle and overlaying skin were closed with suture material. Each animal was subsequently treated with a daily gavage of either GM-284 (5 mg/kg), FK506 (5 mg/kg), or methylcellulose vehicle alone.

[3] = system: 5-mm skin biopsies; experiment: Closure of 5-mm skin biopsy wounds under daily topical treatment; type: in vivo, mice
Protocol: The foregoing results also raised the possibility that GM-284 might show similar effects if administered topically, directly to the surgical site. To investigate this possibility, 10 retired breeders—5 male mice and 5 female mice—were prepared for surgery, and were subjected to 5-mm skin biopsies using a disposable biopsy punch. After achieving hemostasis, the wounds were treated immediately with topical application of either GM-284 or vehicle, or received no treatment at all. The treatment was repeated daily.
During the experimental period, the wounds were photographed daily, and the photographs were scanned for […]. The open area of each wound was quantified using an image-analysis program, NIH Image.

[4] = system: human-foreskin keratinocytes; experiment: Proliferation of cultured human-foreskin keratinocytes; type: cell-based
Protocol: Human keratinocytes were thawed, then either grown in the presence of increasing concentrations of GM-284, or grown in 5 μM FeSO4 as a positive control.
As detailed above, keratinocyte proliferation is influenced by a number of factors, including innervation (Hsieh and Lin, Modulation of keratinocyte proliferation by skin innervation. J. Invest. Dermatol., 113:579–86, 1999) and growth-factor treatment (Castagnino et al., Neu differentiation factor/heregulin induction by hepatocyte and keratinocyte growth factors. Oncogene, 19:640–48, 2000; and reviewed by Werner and Smola, Paracrine regulation of keratinocyte proliferation and differentiation. Trends Cell Biol., 11: 143–46, 2001). Thus, by culturing human-foreskin keratinocytes with increasing concentrations of GM-284, the inventor investigated the possibility that GM-284 was able to influence keratinocyte growth. […] This type of drug-dependent inhibition is consistent with the inventor's previous observation that a higher concentration of GM-284 blocks gene expression that is induced at a lower drug concentration (data not shown).

[5] = system: epidermis; experiment: Epidermal thickness after full-thickness skin biopsy and topical treatment; type: in vivo, mice; conditions: topical daily for 8 days in DMSO-based vehicle, rebiopsy, H&E
Protocol: FIG. 4 illustrates that topical treatment with GM-284 increases epidermal thickness in vivo. Eight days after full-thickness skin biopsies and daily treatment with vehicle, FK506, or GM-284, the original biopsy sites were rebiopsied and stained with hemotoxylin and eosin.
To examine this possibility, 5-mm, full-skin thickness biopsies were taken from the hindquarters of both male and female ICR retired breeders. The wounds were treated daily, for 8 days, with topical administration of either the DMSO-based vehicle, or FK506 or GM-284 in the vehicle. Thereafter, the original biopsy site was rebiopsied. […] In contrast, the epidermis of the GM-284-treated animals was much thicker, and appeared to be much more cellular, than the epidermis of animals under the other two conditions (FIG. 4, panel c).

[6] = system: hair follicles and sebaceous glands; experiment: Histology of adenexal structures and sebaceous cell volume after skin biopsy and topical treatment; type: in vivo, mice; conditions: topical daily, 8 days
Protocol: (A) Eight days following full-thickness skin biopsies and daily treatment with either vehicle or a 1 μM solution of GM-284, the original biopsy sites were rebiopsied and stained with hemotoxylin and eosin. […] Micrographs from the two treatment groups were scanned, and the volume of sebaceous cells was measured in voxels (n=>300 cells per treatment group). The resulting data were binned by 3000-voxel increments.
Using the topical-application-following-skin-biopsy paradigm detailed above, the lateral aspects of the original lesions were rebiopsied 8 days after the original lesions. The tissues were immersion-fixed, dehydrated through step gradients of alcohols, stained with hemotoxylin and eosin, and mounted for microscopic analysis, all following standard protocols. It is known that skin wounds in rodents heal inwards, from the perimeter, converging at a central point (Cohen, Stress and wound healing. Acta Anat. (Basel), 103:134–41, 1979). Therefore, the lateral edges of the original lesions were selected for analysis because these areas of tissue had the greatest opportunity to regenerate under the experimental conditions.
The volumes of the cells of the sebaceous glands were determined by scanning micrographs taken from animals treated with either GM-284 or vehicle for 8 days, and measuring cell size with the NIH Image program. […] There was an absence of smaller sebaceous cells in the GM-284 treatment group, and an absence of larger cells in the vehicle-treated group. […] Thus, given the cellular expansion in all three of these dermal compartments, it is likely that GM-284 acts at the level of the common stem cell.

[7] = system: nerve fibers of injured skin; experiment: Reinnervation and remyelination of healing skin (MBP and neuron-specific β-tubulin staining); type: in vivo, mouse; conditions: 8 days of treatment after biopsy
Excerpt: FIG. 6 illustrates that GM-284 induces rapid reinnervation of injured skin. (A) The inventor examined innervation of surgically damaged skin (biopsy) following 8 days of treatment with either GM-284 or vehicle. The skin sections were stained with an antibody that recognizes myelin basic protein (MBP). […] In contrast, healing skin which had been treated with vehicle alone still had no myelinated fibers, nor did the Langerhans cells appear to have any organization relative to the epidermis (right panel). (B) Unmyelinated fibers also innervate the skin, where the fibers extend into the epidermis. […] No such fibers were found in the vehicle-treated controls.
As shown above, GM-284 induces rapid healing of wounds; it does so, in part, by influencing the proliferation of cells within the dermis and epidermis. In addition, this compound has profound effects on the regeneration of peripheral nerves. The inventor has previously shown that, following crushing-nerve injury, GM-284 enhances nerve regeneration, acting on both the axon and the Schwann cell (data not shown). To investigate whether GM-284 also enhances sensory-nerve regeneration into skin following wounding, the inventor examined innervation of skin biopsies after 8 days of treatment with either GM-284 or vehicle. […]

[8] = system: epidermis of intact skin; experiment: Topical treatment of intact shaved skin, with recovery period; type: in vivo
Excerpt: Either GM-284 or vehicle was applied to the dorsal skin on both sides of the animals, daily for 2 weeks. At that time, a 5-mm biopsy was taken from only one side, and all treatment was withheld. After an additional 2-week recovery period, a 5-mm biopsy was taken from the contralateral, intact side. […] 20×magnification
In order to test these effects, the inventor shaved the dorsal fur from over the hindquarters, bilaterally, and tattooed ˜5-mm circles on the skin. Either GM-284 or vehicle was applied daily, to both sides of the animals, for 2 weeks. After that time, a 5-mm biopsy was taken from only one side of each animal, and all treatment was withheld. After an additional 2-week “recovery period”, a 5-mm biopsy was taken from the intact side of each animal.

[9] = system: neuregulin-α; experiment: Neuregulin-α expression in keratinocytes of unwounded skin in situ; type: in vivo
Excerpt: FIG. 8 illustrates that GM-284 alters neuregulin gene expression. […] As expected, unwounded, vehicle-treated keratinocytes strongly express neuregulin-α (top panel).
As expected, unwounded, vehicle-treated keratinocytes strongly expressed neuregulin-α (FIG. 8, top panel).

[10] = system: facial nerve; experiment: Whisker movement after unilateral facial nerve compression; type: in vivo; conditions: rats, versus control
[11] = system: peripheral nerves; experiment: Peripheral nerve regeneration after mechanical transection; type: in vivo; conditions: mechanical transection of peripheral nerves; earlier studies of the inventor

CCC(C)(C)C(=O)C(=O)N1CCC[C@H]1c1nnc([C@@H]2CCCN2C(=O)C(=O)C(C)(C)CC)o1 [GM-284]
Kd [1]: 139 nM
appearance and closure of surgical wounds ([2]; daily gavage 5 mg/kg, skin and muscle entered, blinded observer): less erythemia and more rapid closure
rate of wound healing versus controls ([2]; mice treated systemically, controls vehicle or FK506): healed at approximately twice the rate as the controls
healing of surgical wounds, only the skin entered ([2]; muscle and overlying fascia left intact): same improved healing characteristics
granulation of wound edges ([3]; topical daily, D3 and D9): better granulated than the controls
closure rate, open wound area by NIH Image (FIG. 2) ([3]; topical daily, day 5): large difference in the closure rates
open wound size versus control groups, NIH Image (FIG. 2) ([3]; topical daily, day 9): approximately one-third the size of those of the control groups
open wound size versus control groups, NIH Image (FIG. 2) ([3]; topical daily, day 9, listed as GM284): approximately as completely healed as that of the two control groups
rate of wound closure, open wound area by NIH Image ([3]; topical daily, third treatment day): closed approximately twice as fast as the control groups
wound closure versus control groups (FIG. 1) ([3]; topical, once daily, day 3): showed improvement by 3 days; also recorded: significantly more closed than the control groups
wound closure (FIG. 1) ([3]; topical, once daily, day 9): virtually closed by the ninth day
increase in rate of keratinocyte proliferation ([4]; 1 μM, after 14 days of treatment): more than 150%
proliferative index of keratinocytes (FIG. 3) ([4]; 1 μM, after first passage and reseeding): doubling of the proliferative index
keratinocyte growth rate at 10 μM compared with 1 μM ([4]; 10 μM): completely ablated the pro-proliferative activity
epidermal thickness versus vehicle (FIG. 4) [5]: marked increase in epidermal thickness; also recorded: much thicker
number of hair follicles or sebaceous glands ([6]; 1 μM solution): no net increase in the number of hair follicles
hair follicle size and cellularity (FIG. 5A) ([6]; 1 μM solution, versus vehicle): large increase in the width and cellularity of the basal aspects of the hair follicles; also recorded: overall increase in hair-follicle size
sebaceous gland size and cell number (FIG. 5A) ([6]; 1 μM solution, versus vehicle): much rounder, larger, and fuller than those of the controls; also recorded: increase in the size of sebaceous glands
sebaceous cell volume, binned by 3000-voxel increments (FIG. 5B) ([6]; >300 cells per group, versus vehicle): marked shift to the right; also recorded: absence of cells smaller than 3000 voxels
regeneration of myelinated (MBP-positive) fibers in injured skin (FIG. 6A) [7]: regained its pre-injury histology, with new, myelinated fibers running parallel to the epidermis
regeneration of unmyelinated fibers into the epidermis (FIG. 6B) [7]: promotes regeneration of naked axons into the epidermis
epidermal hypertrophy after recovery period (FIG. 7, lower) ([8]; 2 weeks treatment, then 2 weeks without treatment): completely reversed
epidermal thickness of intact skin (FIG. 7, top) ([8]; topical daily for 2 weeks): resulted in epidermal hypertrophy
keratinocyte neuregulin-α expression (FIG. 8) ([9]; 2 weeks of topical treatment, unwounded skin): completely downregulated neuregulin-α expression
keratinocyte neuregulin-α expression after recovery ([9]; skin allowed to recover for 2 weeks, data not shown): keratinocyte expression of neuregulin-α was restored
restoration of whisker movement [10]: more rapidly restore whisker movement compared to control
axonal regeneration and myelination after nerve transection [11]: enhances axonal regeneration and induces hypermyelination
